Source: patent publication US20050004200A1, “Pyrazole compounds as integrin receptor antagonists derivatives” (Pharmacia Corporation, priority 2002, published 2005)
Where two headings read alike, the source gives them in different places.

How the values were obtained:
[1] = in vivo
[2] = plasma level upon oral dosing (AUC-PO); conditions: plasma AUC normalised to dose

Row | Molecule | Rat AUC-PO/dose [1] [µg·h/mL/mg/kg] | Rat AUC-PO/dose [2] [µg·h/mL/mg/kg]
1 | 3-(1,3-benzodioxol-5-yl)-4-[5-[2-(1-methyl-1,2,3,4-tetrahydropyrido[2,3-b]pyrazin-6-yl)ethoxy]-1-(2,2,2-trifluoroethyl)-1H-pyrazol-3-yl]butanoic acid [Example 27] | 2 | –
2 | Cn1nc(CC(CC(=O)O)c2ccc3c(c2)OCO3)cc1OCCc1ccc2c(n1)NCCC2 (centres unmarked) [Example 1, 3-(1,3-benzodioxol-5-yl)-4-{1-methyl-5-[2-(5,6,7,8-tetrahydro-1,8-naphthyridin-2-yl)ethoxy]-1H-pyrazol-3-yl}butanoic acid] | – | 0.9
3 | Cn1nc(CC(CC(=O)O)c2cnc(-c3ccc(Cl)cc3)s2)cc1OCCc1ccc2c(n1)NCCC2 (centres unmarked) [Example 2, 3-[2-(4-chlorophenyl)-1,3-thiazol-5-yl]-4-{1-methyl-5-[2-(5,6,7,8-tetrahydro-1,8-naphthyridin-2-yl)ethoxy]-1H-pyrazol-3-yl}butanoic acid] | – | 1
4 | Cn1nc(CC(CC(=O)O)c2ccc3c(c2)OCO3)cc1SCCc1ccc2c(n1)NCCC2 (centres unmarked) [Example 3, 3-(1,3-benzodioxol-5-yl)-4-(1-methyl-5-{[2-(5,6,7,8-tetrahydro-1,8-naphthyridin-2-yl)ethyl]thio}-1H-pyrazol-3-yl)butanoic acid] | – | 2.2
5 | Cn1nc(CC(CC(=O)O)c2ccc3c(c2)OCO3)cc1S(=O)(=O)CCc1ccc2c(n1)NCCC2 (centres unmarked) [Example 4, 3-(1,3-benzodioxol-5-yl)-4-(1-methyl-5-{[2-(5,6,7,8-tetrahydro-1,8-naphthyridin-2-yl)ethyl]sulfonyl}-1H-pyrazol-3-yl)butanoic acid] | – | 0.7
6 | Cl.Cn1nc(CC(CC(=O)O)c2cnc(C3CC3)s2)cc1OCCc1ccc2c(n1)NCCC2 (centres unmarked) [Example 6, 3-(2-cyclopropyl-1,3-thiazol-5-yl)-4-{1-methyl-5-[2-(5,6,7,8-tetrahydro-1,8-naphthyridin-2-yl)ethoxy]-1H-pyrazol-3-yl}butanoic acid] | – | 1.1
7 | COc1ccc(C(CC(=O)O)Cc2cc(OCCc3ccc4c(n3)NCCN4C)n(C)n2)cn1 (centres unmarked) [Example 7, 3-(6-methoxypyridin-3-yl)-4-{1-methyl-5-[2-(1-methyl-1,2,3,4-tetrahydropyrido[2,3-b]pyrazin-6-yl)ethoxy]-1H-pyrazol-3-yl}butanoic acid] | – | 0.8
8 | CNc1cccc(CCOc2cc(CC(CC(=O)O)c3ccc4c(c3)OCO4)nn2C)n1 (centres unmarked) [Example 8, 3-(1,3-benzodioxol-5-yl)-4-(1-methyl-5-{2-[6-(methylamino)pyridin-2-yl]ethoxy}-1H-pyrazol-3-yl)butanoic acid] | – | 0.7

Further lines, results first:

Row | Rat AUC-PO/dose [1] [µg·h/mL/mg/kg] | Rat AUC-PO/dose [2] [µg·h/mL/mg/kg] | Molecule
9 | – | 1.7 | O=C(O)CC(Cc1cc(OCCc2ccc3c(n2)NCCC3)n(-c2ccccc2)n1)c1ccc2c(c1)OCO2 (centres unmarked) [Example 21, 3-(1,3-benzodioxol-5-yl)-4-{1-phenyl-5-[2-(5,6,7,8-tetrahydro-1,8-naphthyridin-2-yl)ethoxy]-1H-pyrazol-3-yl}butanoic acid]
10 | – | 0.8 | COc1ccc(C(CC(=O)O)Cc2cc(OCCc3ccc4c(n3)NCCC4)n(CC(F)(F)F)n2)cn1 (centres unmarked) [Example 23, 3-(6-methoxypyridin-3-yl)-4-[5-[2-(5,6,7,8-tetrahydro-1,8-naphthyridin-2-yl)ethoxy]-1-(2,2,2-trifluoroethyl)-1H-pyrazol-3-yl]butanoic acid]
11 | – | 0.4 | Cn1nc(CC(CC(=O)O)c2ccc3c(c2)OCO3)cc1OCCc1ccc2c(n1)NCCN2 (centres unmarked) [Example 25, 3-(1,3-benzodioxol-5-yl)-4-{1-methyl-5-[2-(1,2,3,4-tetrahydropyrido[2,3-b]pyrazin-6-yl)ethoxy]-1H-pyrazol-3-yl}butanoic acid]
12 | – | 0.9 | O=C(O)CC(Cc1cc(OCCc2ccc3c(n2)NCCN3)n(CC(F)(F)F)n1)c1ccc2c(c1)OCO2 (centres unmarked) [Example 26, 3-(1,3-benzodioxol-5-yl)-4-[5-[2-(1,2,3,4-tetrahydropyrido[2,3-b]pyrazin-6-yl)ethoxy]-1-(2,2,2-trifluoroethyl)-1H-pyrazol-3-yl]butanoic acid]
13 | – | 1.9 | CN1CCNc2nc(CCOc3cc(CC(CC(=O)O)c4ccc5c(c4)OCO5)nn3C)ccc21 (centres unmarked) [Example 31, 3-(1,3-benzodioxol-5-yl)-4-{1-methyl-5-[2-(1-methyl-1,2,3,4-tetrahydropyrido[2,3-b]pyrazin-6-yl)ethoxy]-1H-pyrazol-3-yl}butanoic acid]
14 | – | 2.2 | Cc1cc(CCOc2cc(CC(CC(=O)O)c3ccc4c(c3)OCO4)nn2C)nc2c1CCCN2 (centres unmarked) [Example 32, 3-(1,3-Benzodioxol-5-yl)-4-{1-methyl-5-[2-(4-methyl-5,6,7,8-tetrahydro-1,8-naphthyridin-2-yl)ethoxy]-1H-pyrazol-3-yl}butanoic acid]
